The assay deals with elektrische Hirnaktivität. The assay is described as follows: EEG recording (CATEEM system, 17 electrodes, 10/20 system) of electrical brain activity after a single oral intake, compared with placebo; studies 1, 3, 4 and 5. It is filed as in vivo, gesunden Testpersonen. The conditions noted are these: for Hirnaktivität / Hirnleistung / Gehirnfunktion (Stimulierung): conclusion in words drawn from the EEG results; for delta Aktivität in Bezug auf die Referenz (Placebo) / Veränderung der delta Aktivität im Vergleich zu Placebo: oral, Augen offen; for Veränderung der delta Aktivität im Vergleich zu Placebo: during 4 Stunden after intake, studies 3-5; for neuro-regenerierende Wirkung: summary of Studienbeispiele 1 - 5, EEG, single oral dose; for delta Power (delta Aktivität): study 1, recording condition not stated, 1-4 h after oral intake.

“Also recorded” adds a separate entry of the source.

With `C[N+](C)(C)CCOP(=O)([O-])OP(=O)(O)OC[C@H]1O[C@@H](n2ccc(N)nc2=O)[C@H](O)[C@@H]1O` [CDP-Cholin, Cytidindiphosphocholin], the “Hirnaktivität / Hirnleistung / Gehirnfunktion (Stimulierung)” value is reported as “nicht bzw. nur leicht jedoch nicht signifikant steigern” and the “neuro-regenerierende Wirkung” value is reported as “-”. Moreover, the “delta Aktivität in Bezug auf die Referenz (Placebo)” value (“delta Aktivität … (Placebo)” for short) (1 h after intake) is 98%. For the same compound, the “delta Aktivität … (Placebo)” value (2h after intake) was 102%. Besides, the “delta Aktivität … (Placebo)” value (4h after intake) amounted to 96%. Further, the “Veränderung der delta Aktivität im Vergleich zu Placebo” value (result in words) is recorded as “geringfügige aber im Vergleich zum Placebo-Arm nicht signifikante Veränderung”.
Turning to Phosphatidylserin, the “Hirnaktivität / Hirnleistung / Gehirnfunktion (Stimulierung)” value is listed as “nicht bzw. nur leicht jedoch nicht signifikant steigern; also recorded: nicht beobachtet” and the “neuro-regenerierende Wirkung” value is “-”. Moreover, for the setting “1 h after intake”, the “delta Aktivität … (Placebo)” value was determined as 96%. Also, the “delta Aktivität … (Placebo)” value (2h after intake) turned out to be 94%. For the same compound, the “delta Aktivität … (Placebo)” value (4h after intake) is given as 94%. Further, for the setting “result in words”, the “Veränderung der delta Aktivität im Vergleich zu Placebo” value is given as “keinen signifikanten Veränderungen” and the “delta Power (delta Aktivität)” value is “Abnahme des delta Power”. Further, where the note is “result in words, study 1”, the “Beta-Aktivitäten (beta Power)” value is “nur bei einem Messzeitpunkt nämlich 3 Stunden nach Verabreichung des Wirkstoffs eine statistisch signifikante Abnahme” and the “alpha Power (alpha Aktivität)” value is “leichter aber nicht signifikanter Zunahme”. For the setting “result in words, study 1, Augen offen”, the “delta Aktivitäten” value is recorded as “während der zweiten und dritten Stunde vermindert, aber keine statistische Signifikanz”. Further, the “delta Power (delta Aktivität)” value (result in words, listed as INDO I) is “Abnahme der elektrischen delta Aktivität (delta Power), die jedoch nur 4 Stunden nach Applikation statistisch signifikant war”.

(Values after patent publication EP1951308B1, “COMBINATION PREPARATIONS CONTAINING PHYSIOLOGICAL CELL MEMBRANE CONSTITUENTS INCLUDING PHOSPHATIDYLSERINE, CHOLINE AND A PYRIMIDINE NUCLEOSIDE/NUCLEOTIDE” (Susilo, Gisela, priority 2005, dated 2007).)
